#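 These data come from cells grown in 96-well plates and exposed to compound for 48 hours at five concentrations. TGI denotes the concentration required for complete inhibition of growth.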
# What was measured:
# Assay in all cases: growth of human tumour cells (NCI), 48 h
# SN12C renal = system: SN12C renal
# OVCAR-3 ovarian = system: OVCAR-3 ovarian
# RPMI-8226 leukemia = system: RPMI-8226 leukemia
# T-47D breast = system: T-47D breast
# MCF7 breast = system: MCF7 breast
# UO-31 renal = system: UO-31 renal
# HL-60(TB) leukemia = system: HL-60(TB) leukemia
# SNB-19 CNS = system: SNB-19 CNS
# MDA-MB-435 = system: MDA-MB-435
# SK-MEL-5 melanoma = system: SK-MEL-5 melanoma
# OVCAR-5 ovarian = system: OVCAR-5 ovarian
# SF-295 CNS = system: SF-295 CNS
# HOP-62 NSCLC = system: HOP-62 NSCLC
# HCT-116 colon = system: HCT-116 colon
# UACC-257 melanoma = system: UACC-257 melanoma
# SK-MEL-28 melanoma = system: SK-MEL-28 melanoma
# HS 578T breast = system: HS 578T breast
# NCI-H23 lung = system: NCI-H23 lung
# HOP-92 NSCLC = system: HOP-92 NSCLC
# HCT-15 colon = system: HCT-15 colon
# NCI/ADR-RES ovarian = system: NCI/ADR-RES ovarian
# NCI-H226 lung = system: NCI-H226 lung
# MALME-3M melanoma = system: MALME-3M melanoma
# SK-MEL-2 melanoma = system: SK-MEL-2 melanoma
# HT29 colon = system: HT29 colon
# SK-OV-3 ovarian = system: SK-OV-3 ovarian
# KM12 colon = system: KM12 colon
# OVCAR-4 ovarian = system: OVCAR-4 ovarian
# NCI-H522 lung = system: NCI-H522 lung
# U251 CNS = system: U251 CNS
# IGROV1 ovarian = system: IGROV1 ovarian
# SW-620 colon = system: SW-620 colon
# BT-549 breast = system: BT-549 breast
# COLO 205 colon = system: COLO 205 colon
# CCRF-CEM leukemia = system: CCRF-CEM leukemia
# M14 melanoma = system: M14 melanoma
# NCI-H460 lung = system: NCI-H460 lung
# CAKI-1 renal = system: CAKI-1 renal
# TK-10 renal = system: TK-10 renal
# LOX IMVI melanoma = system: LOX IMVI melanoma
# MDA-N = system: MDA-N
# PC-3 prostate = system: PC-3 prostate
# DU-145 prostate = system: DU-145 prostate
# UACC-62 melanoma = system: UACC-62 melanoma
# A549 NSCLC = system: A549 NSCLC
# K-562 leukemia = system: K-562 leukemia
# SF-268 CNS = system: SF-268 CNS
# SR leukemia = system: SR leukemia
# 786-0 renal = system: 786-0 renal
# SNB-75 CNS = system: SNB-75 CNS
# ACHN renal = system: ACHN renal
# EKVX NSCLC = system: EKVX NSCLC
# OVCAR-8 ovarian = system: OVCAR-8 ovarian
# HCC-2998 colon = system: HCC-2998 colon
# MOLT-4 leukemia = system: MOLT-4 leukemia
# SF-539 CNS = system: SF-539 CNS
# A498 renal = system: A498 renal
# MDA-MB-231 breast = system: MDA-MB-231 breast
# RXF 393 renal = system: RXF 393 renal
compound,measurement,setting,value
O=[N+]([O-])c1ccc(N/N=C2\C=CCCC2)c([N+](=O)[O-])c1,TGI,SN12C renal,> 100 µM
same,TGI,OVCAR-3 ovarian,> 100 µM
same,TGI,RPMI-8226 leukemia,> 100 µM
same,TGI,T-47D breast,> 100 µM
same,TGI,MCF7 breast,> 100 µM
same,TGI,UO-31 renal,> 100 µM
same,TGI,HL-60(TB) leukemia,> 100 µM
same,TGI,SNB-19 CNS,> 100 µM
same,TGI,MDA-MB-435,> 100 µM
same,TGI,SK-MEL-5 melanoma,> 100 µM
same,TGI,OVCAR-5 ovarian,> 100 µM
same,TGI,SF-295 CNS,> 100 µM
same,TGI,HOP-62 NSCLC,> 100 µM
same,TGI,HCT-116 colon,> 100 µM
same,TGI,UACC-257 melanoma,> 100 µM
same,TGI,SK-MEL-28 melanoma,> 100 µM
same,TGI,HS 578T breast,> 100 µM
same,TGI,NCI-H23 lung,> 100 µM
same,TGI,HOP-92 NSCLC,> 100 µM
same,TGI,HCT-15 colon,> 100 µM
same,TGI,NCI/ADR-RES ovarian,> 100 µM
same,TGI,NCI-H226 lung,> 100 µM
same,TGI,MALME-3M melanoma,> 100 µM
same,TGI,SK-MEL-2 melanoma,> 100 µM
same,TGI,HT29 colon,> 100 µM
same,TGI,SK-OV-3 ovarian,> 100 µM
same,TGI,KM12 colon,> 100 µM
same,TGI,OVCAR-4 ovarian,> 100 µM
same,TGI,NCI-H522 lung,> 100 µM
same,TGI,U251 CNS,> 100 µM
same,TGI,IGROV1 ovarian,> 100 µM
same,TGI,SW-620 colon,> 100 µM
same,TGI,BT-549 breast,> 100 µM
same,TGI,COLO 205 colon,> 100 µM
same,TGI,CCRF-CEM leukemia,> 100 µM
same,TGI,M14 melanoma,> 100 µM
same,TGI,NCI-H460 lung,> 100 µM
same,TGI,CAKI-1 renal,> 100 µM
same,TGI,TK-10 renal,> 100 µM
same,TGI,LOX IMVI melanoma,> 100 µM
same,TGI,MDA-N,> 100 µM
same,TGI,PC-3 prostate,> 100 µM
same,TGI,DU-145 prostate,> 100 µM
same,TGI,UACC-62 melanoma,> 100 µM
same,TGI,A549 NSCLC,> 100 µM
same,TGI,K-562 leukemia,> 100 µM
same,TGI,SF-268 CNS,> 100 µM
same,TGI,SR leukemia,> 100 µM
same,TGI,786-0 renal,> 100 µM
same,TGI,SNB-75 CNS,73 µM
same,TGI,ACHN renal,> 100 µM
same,TGI,EKVX NSCLC,> 100 µM
same,TGI,OVCAR-8 ovarian,> 100 µM
CCCCCCSC[C@H](OC(C)=O)[C@@H](OC(C)=O)[C@@H](OC(C)=O)[C@@H](COC(C)=O)OC(C)=O,TGI,HCC-2998 colon,> 100 µM
same,TGI,SN12C renal,> 100 µM
same,TGI,OVCAR-3 ovarian,> 100 µM
same,TGI,RPMI-8226 leukemia,50.1 µM
same,TGI,MOLT-4 leukemia,90.5 µM
same,TGI,T-47D breast,> 100 µM
same,TGI,MCF7 breast,> 100 µM
same,TGI,UO-31 renal,> 100 µM
same,TGI,HL-60(TB) leukemia,> 100 µM
same,TGI,SNB-19 CNS,> 100 µM
same,TGI,MDA-MB-435,> 100 µM
same,TGI,SK-MEL-5 melanoma,62.1 µM
same,TGI,OVCAR-5 ovarian,> 100 µM
same,TGI,SF-295 CNS,> 100 µM
same,TGI,HOP-62 NSCLC,> 100 µM
same,TGI,HCT-116 colon,> 100 µM
same,TGI,UACC-257 melanoma,> 100 µM
same,TGI,SK-MEL-28 melanoma,> 100 µM
same,TGI,HS 578T breast,> 100 µM
same,TGI,NCI-H23 lung,> 100 µM
same,TGI,HOP-92 NSCLC,> 100 µM
same,TGI,HCT-15 colon,> 100 µM
same,TGI,NCI/ADR-RES ovarian,> 100 µM
same,TGI,NCI-H226 lung,> 100 µM
same,TGI,MALME-3M melanoma,> 100 µM
same,TGI,SK-MEL-2 melanoma,> 100 µM
same,TGI,HT29 colon,> 100 µM
same,TGI,SK-OV-3 ovarian,> 100 µM
same,TGI,KM12 colon,> 100 µM
same,TGI,OVCAR-4 ovarian,> 100 µM
same,TGI,U251 CNS,> 100 µM
same,TGI,IGROV1 ovarian,> 100 µM
same,TGI,SW-620 colon,> 100 µM
same,TGI,BT-549 breast,> 100 µM
same,TGI,COLO 205 colon,> 100 µM
same,TGI,SF-539 CNS,> 100 µM
same,TGI,CCRF-CEM leukemia,> 100 µM
same,TGI,M14 melanoma,> 100 µM
same,TGI,NCI-H460 lung,> 100 µM
same,TGI,CAKI-1 renal,> 100 µM
same,TGI,TK-10 renal,> 100 µM
same,TGI,LOX IMVI melanoma,> 100 µM
same,TGI,MDA-N,> 100 µM
same,TGI,PC-3 prostate,99.6 µM
same,TGI,DU-145 prostate,> 100 µM
same,TGI,UACC-62 melanoma,> 100 µM
same,TGI,A549 NSCLC,> 100 µM
same,TGI,K-562 leukemia,> 100 µM
same,TGI,SF-268 CNS,> 100 µM
same,TGI,786-0 renal,> 100 µM
same,TGI,SNB-75 CNS,> 100 µM
same,TGI,A498 renal,> 100 µM
same,TGI,MDA-MB-231 breast,> 100 µM
same,TGI,ACHN renal,> 100 µM
same,TGI,RXF 393 renal,> 100 µM
same,TGI,EKVX NSCLC,> 100 µM
same,TGI,OVCAR-8 ovarian,> 100 µM
O=C1/C(=C/c2ccc(O)c(CN3CCCCC3)c2)CCC/C1=C\c1ccc(O)c(CN2CCCCC2)c1,TGI,HCC-2998 colon,20.6 µM
same,TGI,SN12C renal,59 µM
same,TGI,OVCAR-3 ovarian,> 100 µM
same,TGI,RPMI-8226 leukemia,35.8 µM
same,TGI,MOLT-4 leukemia,27 µM
same,TGI,T-47D breast,35.8 µM
same,TGI,MCF7 breast,15.5 µM
same,TGI,UO-31 renal,22.5 µM
same,TGI,HL-60(TB) leukemia,11.5 µM
same,TGI,SNB-19 CNS,17.7 µM
same,TGI,MDA-MB-435,18.2 µM
same,TGI,SK-MEL-5 melanoma,27.1 µM
same,TGI,OVCAR-5 ovarian,> 100 µM
same,TGI,SF-295 CNS,16.3 µM
same,TGI,HOP-62 NSCLC,26.3 µM
same,TGI,HCT-116 colon,14.7 µM
same,TGI,UACC-257 melanoma,23.9 µM
same,TGI,SK-MEL-28 melanoma,31.3 µM
same,TGI,HS 578T breast,83.8 µM
same,TGI,NCI-H23 lung,20.2 µM
same,TGI,HOP-92 NSCLC,12.3 µM
same,TGI,HCT-15 colon,29.5 µM
same,TGI,NCI/ADR-RES ovarian,9.82 µM
same,TGI,NCI-H226 lung,48.2 µM
same,TGI,MALME-3M melanoma,28.7 µM
same,TGI,SK-MEL-2 melanoma,50.6 µM
same,TGI,HT29 colon,3.7 µM
same,TGI,SK-OV-3 ovarian,22.4 µM
same,TGI,KM12 colon,14.8 µM
same,TGI,OVCAR-4 ovarian,33.2 µM
same,TGI,U251 CNS,20.5 µM
same,TGI,IGROV1 ovarian,29.4 µM
same,TGI,SW-620 colon,29.1 µM
same,TGI,BT-549 breast,31.3 µM
same,TGI,COLO 205 colon,10.4 µM
same,TGI,CCRF-CEM leukemia,17.7 µM
same,TGI,M14 melanoma,44.5 µM
same,TGI,NCI-H460 lung,13.6 µM
same,TGI,CAKI-1 renal,34.5 µM
same,TGI,TK-10 renal,21.1 µM
same,TGI,LOX IMVI melanoma,25.1 µM
same,TGI,MDA-N,20.6 µM
same,TGI,PC-3 prostate,44.6 µM
same,TGI,DU-145 prostate,17.6 µM
same,TGI,UACC-62 melanoma,38.2 µM
same,TGI,A549 NSCLC,53.5 µM
same,TGI,K-562 leukemia,42.3 µM
same,TGI,SF-268 CNS,20.8 µM
same,TGI,786-0 renal,17.5 µM
same,TGI,SNB-75 CNS,12.4 µM
same,TGI,A498 renal,28.9 µM
same,TGI,MDA-MB-231 breast,17.4 µM
same,TGI,ACHN renal,19.5 µM
same,TGI,RXF 393 renal,15.5 µM
same,TGI,EKVX NSCLC,25.2 µM
same,TGI,OVCAR-8 ovarian,29.8 µM

# From PubChem BioAssay (NCI)
